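Method: 48-hour compound exposure of cells in 96-well plates, five concentrations, linear interpolation of endpoints. GI50 = concentration required for 50% inhibition of growth.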 Calls of active or inactive are those of the source. Cut-off read from the data, not from the text of the source: active = GI50 up to about 1.1 µM and inactive = higher.
Key:
Assay in all cases: NCI tumour cell line growth inhibition, 48 h
[1] = system: K562
[2] = system: EKVX
[3] = system: LOX IMVI
[4] = system: SNB-19
[5] = system: NCI-H23
[6] = system: SW-620
[7] = system: UACC-62
[8] = system: U-251
[9] = system: MOLT-4
[10] = system: KM12
[11] = system: SNB-75
[12] = system: ACHN
[13] = system: COLO 205
[14] = system: TK-10
[15] = system: SK-OV-3
[16] = system: CAKI-1
[17] = system: HL-60
[18] = system: HT-29

Measured: GI50

Cc1cccc(C)c1N1C(=O)C(=O)C(c2nc3ccccc3s2)/C(=N\N)C1=O (stereo not given)
inactive: [1] 31.8 µM | [2] 47 µM | [3] > 100 µM | [4] > 100 µM | [5] > 100 µM | [6] > 100 µM | [7] 77.4 µM | [8] > 100 µM | [9] 30.3 µM | [10] 52 µM | [11] > 100 µM | [12] 62.1 µM | [13] > 100 µM | [14] > 100 µM | [15] > 100 µM | [16] > 100 µM | [17] 36.3 µM | [18] > 100 µM

O=C1NC2=C(CCCCC/C2=N\O)C12CCCCCC2
inactive: [1] > 100 µM | [2] > 100 µM | [3] > 100 µM | [4] > 100 µM | [5] > 100 µM | [6] > 100 µM | [7] > 100 µM | [8] > 100 µM | [9] > 100 µM | [10] > 100 µM | [11] > 100 µM | [12] > 100 µM | [13] > 100 µM | [14] > 100 µM | [15] > 100 µM | [16] > 100 µM | [17] > 100 µM | [18] > 100 µM

Fc1cccc2c1cc1ccc3cccc4ccc2c1c34
inactive: [1] > 100 µM | [2] > 100 µM | [3] > 100 µM | [4] > 100 µM | [5] > 100 µM | [6] > 100 µM | [7] > 100 µM | [8] > 100 µM | [9] > 100 µM | [10] > 100 µM | [11] > 100 µM | [12] > 100 µM | [13] > 100 µM | [14] 60.1 µM | [15] > 100 µM | [16] > 100 µM | [17] > 100 µM | [18] > 100 µM

C1OC1CN1CCN(CC2CO2)CC1 (stereo not given)
inactive: [1] 52.5 µM | [2] > 100 µM | [3] 44.1 µM | [4] > 100 µM | [5] 22.1 µM | [6] > 100 µM | [7] 8.87 µM | [8] 45.4 µM | [9] 3.28 µM | [10] > 100 µM | [11] 38.2 µM | [12] 12.4 µM | [13] > 100 µM | [14] > 100 µM | [15] > 96.8 µM | [16] 26.7 µM | [17] 4.85 µM | [18] > 100 µM

O=C1C=C2CCCC2C(C(=O)O)(C(=O)O)C1 (stereo not given)
inactive: [1] > 100 µM | [2] > 100 µM | [3] > 100 µM | [4] > 100 µM | [5] > 100 µM | [6] > 100 µM | [7] > 100 µM | [8] > 100 µM | [9] > 100 µM | [10] > 100 µM | [11] > 100 µM | [13] > 100 µM | [14] > 100 µM | [15] > 100 µM | [16] > 100 µM | [17] > 100 µM | [18] > 100 µM

CN1CCN(c2nc(N)c(Br)c(Cl)n2)CC1
inactive: [1] > 100 µM | [2] > 100 µM | [3] > 100 µM | [4] > 100 µM | [5] > 100 µM | [6] > 100 µM | [7] > 100 µM | [9] > 100 µM | [10] > 100 µM | [11] 58.3 µM | [12] > 100 µM | [13] > 100 µM | [14] > 100 µM | [15] > 100 µM | [16] > 100 µM | [17] > 100 µM

— ChEMBL document CHEMBL1201862, “PubChem BioAssay data set” (2004)
